Among the data in PubChem BioAssay (NCI) are TGI and GI50 values, retold here.

Assay in all cases: inhibition of tumour cell growth, NCI panel, 48 h
Assay [1] relates to 786-0 renal.
Assay [2] has as its system HCT-15 colon.
Assay [3] concerns MCF7 breast.
Assay [4] has as its system LOX IMVI melanoma.
The test system of assay [5] is MOLT-4 leukemia.
For assay [6], the system named is A498 renal.
The subject of assay [7] is MDA-MB-435.
Assay [8] concerns SNB-75 CNS.
For assay [9], the system named is SF-268 CNS.
Assay [10] relates to KM12 colon.

SMILES strings stand for the structures.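 Compound exposure: 48 hours, 5 concentrations, 96-well plates. GI50 = concentration required for 50% inhibition of growth. TGI: concentration producing complete growth inhibition.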

Take `COC(=O)[C@]1(C)CCC[C@@]2(C)[C@@H]3C[C@@H]4[C@H]5C[C@@]3(CC[C@@H]21)C[C@@]45C`: the TGI was 29.6 µM in [1]; 29.7 µM in assay [2]; 30.3 µM in assay [3]; 34.9 µM in [4]; 33.8 µM in [5]; 34.1 µM in [6]. Further, the TGI in [7] worked out at 38.7 µM; in assay [8], 31.5 µM; in [9], 31.8 µM.
`CCN(CC)CCOc1c(OC)c(Br)cc2c(C)c(C(=O)OC)oc12`: the GI50 in assay [1] is 1.71 µM; in assay [2] it was 0.864 µM; in assay [10] it was 0.569 µM; in assay [3], 1.63 µM; in assay [4], 0.749 µM; in assay [5], 374 nM. For the same compound, the GI50 in [6] was 7.39 µM; in [7] it was 1.03 µM; in assay [9] it was 1.33 µM. Also, the TGI came out at 6.04 µM in assay [1]; 2.46 µM in assay [2]; 1.98 µM in assay [10]; 5.74 µM in [3]; 1.45 µM in assay [4]; 1.23 µM in assay [5]. Further, the results for the TGI in assay [6], in assay [7] and in assay [9] were 14.6 µM, 2.62 µM and 5.08 µM, respectively.
Take `CC[C@@]12C=CCN3CC[C@]4(c5cc(NC(=O)COc6cc(OCC(=O)Nc7cc8c(cc7OC)N(C)[C@H]7[C@@](O)(C(=O)OC)[C@H](OC(C)=O)[C@]9(CC)C=CCN%10CC[C@]87[C@@H]%109)cc7oc(-c8ccccc8)cc(=O)c67)c(OC)cc5N(C)[C@@H]4[C@](O)(C(=O)OC)[C@H]1OC(C)=O)[C@H]32`: the GI50 in assay [1] was 3.58 µM; in assay [2], 1.7 µM; in assay [3] it was 3.25 µM; in [4] it was 2.63 µM; in [5], 2790 nM; in assay [6], 7.6 µM. Also, the GI50 in [7] is 17.7 µM; in [8], 3.41 µM. The TGI in [1] was 14.9 µM; in assay [2], 12.1 µM; in assay [3], 21.7 µM; in assay [4], 10.1 µM; in assay [5], more than 100 µM; in assay [6] it was 22.3 µM. The TGI in [7] and in [8] was more than 100 µM throughout.
With `CN1c2ccccc2S(=O)(=O)n2c(CCc3ccccc3)nnc21`, the TGI in assay [1], in assay [2], in [10], in assay [3], in assay [4] and in [5] was more than 100 µM each time. The TGI in assay [6], in assay [7] and in assay [9] was more than 100 µM throughout.
As for `CCCCN(CC)c1ncnc2ccc(Br)cc12`, the GI50 in assay [1] was 18.9 µM; in assay [2], 22.1 µM; in assay [10] it was 15.3 µM; in [3], 24.6 µM; in assay [4], 17.9 µM; in [5], 2450 nM. Also, the values for the GI50 in assay [6], in assay [7] and in assay [9] were 10.2 µM, 16 µM and 19.1 µM, respectively. The TGI in assay [1] was 39.7 µM; in [2] it was 54.7 µM; in [10], 31.6 µM; in assay [3], 75.2 µM; in assay [4] it was 38.7 µM; in assay [5], more than 100 µM. For the same compound, the TGI in assay [6] amounted to 23.6 µM; in [7], 34.4 µM; in assay [9] it was 68 µM.
Regarding `CCCCNC(=O)Oc1ccc(/C(=C(/CC)Cc2ccccc2)c2ccc(OCCN3CCCCCC3)cc2)cc1`, the GI50 is 16.2 µM in [1]; 16.4 µM in [2]; 31.7 µM in assay [10]; 6.32 µM in assay [3]; 17 µM in assay [4]; 21800 nM in assay [5]. Further, the GI50 in assay [7] is 17.2 µM; in [8], more than 100 µM; in assay [9], 59.8 µM. In addition, the TGI in [1] is 30 µM; in [2], 36.3 µM; in [10], more than 100 µM; in assay [3] it was 59.6 µM; in assay [4] it was 30.7 µM; in assay [5] it was 72.7 µM. The TGI in assay [7] is 34.3 µM; in [8], more than 100 µM; in [9], more than 100 µM.
For the compound `COc1cc2c3c(ncc2c(OC)c1OC)-c1cc2c(cc1C3)OCO2`, the GI50 was 33.7 µM in assay [1]; 32.6 µM in assay [2]; more than 100 µM in assay [10]; 15.6 µM in assay [3]; more than 100 µM in assay [7]; more than 100 µM in assay [8]. The TGI in assay [1] was more than 100 µM; in assay [2], more than 100 µM; in [10], more than 100 µM; in assay [3] it was 59 µM; in assay [7], more than 100 µM; in [8] it was more than 100 µM.
For `Cc1ccc2sc3ccc(N)cc3c(=O)c2c1`, the TGI in assay [1], in [2], in assay [10], in assay [3], in assay [4] and in assay [5] was more than 100 µM throughout. For the same compound, the TGI in assay [6], in assay [7] and in assay [9] was more than 100 µM throughout.
Turning to `NNS(=O)(=O)c1cc(C(=O)O)cc(C(=O)O)c1`, the TGI in [1], in assay [2], in assay [10], in assay [3], in assay [4] and in [5] was more than 100 µM each time. Further, the TGI in assay [6], in assay [7] and in assay [9] was more than 100 µM in each case.
`CSc1nsc(S/C=C\C(=O)c2ccc(C)cc2)n1`: the GI50 in assay [1] was 14.8 µM; in [2], 11.9 µM; in [10], 28 µM; in [4] it was 4.94 µM; in [5], 1610 nM; in assay [6], 0.0153 µM. Besides, the results for the GI50 in [7] and in assay [9] were 19.2 µM and 21.5 µM, respectively. Further, the TGI was 28.9 µM in [1]; 25.3 µM in assay [2]; more than 64.7 µM in assay [10]; 35.4 µM in assay [3]; 10.8 µM in assay [4]; more than 51.5 µM in [5]. Further, the TGI in assay [6] was 0.169 µM; in assay [7], 45.6 µM; in [9], more than 58.5 µM.
